Laboratory results from patent publication US10961198B2, “Farnesoid X receptor agonists and uses thereof” (Metacrine, Inc., priority 2017, dated 2021).

Target: hFXR (Homo sapiens (Human), UniProt Q96RI1)
Assay: In Vitro FXR Assay (TK)
Type: cell-based
Conditions: CV-1 cells transfected with hFXR, hRXR, TK-ECRE-luc and pCMX-YFP; incubated 18 hrs; luminescence; maximum efficacy <25% of the Fexarmine control classified as '+'
Procedure: Example B-1: In Vitro FXR Assay (TK)
CV-1 cells were seeded at a density of 2,000,000 cells in a T175 flask with DMEM+10% charcoal double-stripped FBS and incubated at 37° C. in 5% CO2 for 18 h (O/N).
After 18 h of incubation, the medium in the T175 flask was changed with fresh DMEM+10% charcoal super-stripped serum. In a polypropylene tube, 2500 μL OptiMEM (Life Technologies, Cat #31985-062) was combined with expression plasmids for hFXR, hRXR, TK-ECRE-luc and pCMX-YFP. The tube was then briefly vortexed and incubated at room temperature for 5 minutes. Transfection reagent (X-tremeGENE HP from Roche, Cat #06 366 236 001) was added to the OptiMEM/plasmid mixture vortexed and incubated at room temperature for 20 minutes. Following incubation, the transfection reagent/DNA mixture complex was added to cells in the T175 flask and the cells were incubated at 37° C. in 5% CO2 for 18 h (O/N).
Compounds were serially diluted in DMSO and added to transfected CV-1 cells. The cells were then incubated for 18 hrs. The next day cells were lysed and examined for luminescence.

Sequence of hFXR (Q96RI1 whole entry): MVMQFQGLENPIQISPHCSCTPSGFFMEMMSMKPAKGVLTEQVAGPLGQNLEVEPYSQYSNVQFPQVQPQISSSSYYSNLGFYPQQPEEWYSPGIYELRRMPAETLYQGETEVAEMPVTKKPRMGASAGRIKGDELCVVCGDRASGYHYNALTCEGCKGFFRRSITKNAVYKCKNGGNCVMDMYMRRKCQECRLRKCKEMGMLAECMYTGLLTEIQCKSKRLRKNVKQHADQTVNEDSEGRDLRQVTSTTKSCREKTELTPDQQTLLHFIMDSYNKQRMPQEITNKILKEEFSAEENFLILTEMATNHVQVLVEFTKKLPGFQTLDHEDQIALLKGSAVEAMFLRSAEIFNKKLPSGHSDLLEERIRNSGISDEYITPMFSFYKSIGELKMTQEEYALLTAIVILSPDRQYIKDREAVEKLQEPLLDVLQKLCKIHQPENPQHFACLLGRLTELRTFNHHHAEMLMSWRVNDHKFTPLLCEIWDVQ
Sequence of hFXR (P19793 whole entry partner): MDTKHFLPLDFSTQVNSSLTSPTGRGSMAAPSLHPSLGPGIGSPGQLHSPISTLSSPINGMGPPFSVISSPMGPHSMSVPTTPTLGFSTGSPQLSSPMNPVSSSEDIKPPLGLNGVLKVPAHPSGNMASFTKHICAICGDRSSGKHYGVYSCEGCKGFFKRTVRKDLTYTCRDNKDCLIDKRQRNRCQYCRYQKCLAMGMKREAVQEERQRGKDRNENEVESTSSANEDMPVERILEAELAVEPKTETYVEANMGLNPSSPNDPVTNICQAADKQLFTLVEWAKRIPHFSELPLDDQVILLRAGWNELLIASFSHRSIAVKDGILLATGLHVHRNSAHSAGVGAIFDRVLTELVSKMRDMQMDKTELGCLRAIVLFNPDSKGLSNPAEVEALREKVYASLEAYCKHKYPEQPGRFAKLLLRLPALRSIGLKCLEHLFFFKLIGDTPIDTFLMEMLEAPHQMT

`CCC(C)n1cc(-c2cccc(N(C[C@H]3CC[C@H](c4ccc(OC)c(C)c4)CC3)C(=O)[C@H]3CC[C@H](O)CC3)c2)cn1` (stereo partly drawn) [Compound 3.13, trans-N-(3-(1-(sec-Butyl)-1H-pyrazol-4-yl)phenyl)-4-hydroxy-N-((trans-4-(4-methoxy-3-methylphenyl)cyclohexyl)methyl)cyclohexanecarboxamide] and `COc1ccc([C@H]2CC[C@H](CN(c3cccc(C#Cc4cnn(C)c4)c3)C(=O)[C@H]3CC[C@H](O)CC3)CC2)cc1C` [Compound 4, trans-4-Hydroxy-N-((trans-4-(4-methoxy-3-methylphenyl)cyclohexyl)methyl)-N-(3-((1-methyl-1H-pyrazol-4-yl)ethynyl)phenyl)cyclohexanecarboxamide] cannot be ordered by EC50: ≤ 250 nM for the first, ≤ 250 nM for the second.

`COc1ccc([C@H]2CC[C@H](CN(c3cccc(C#Cc4cn[nH]c4)c3)C(=O)[C@H]3CC[C@H](O)CC3)CC2)cc1C` [Compound 4.01, trans-N-(3-((1H-Pyrazol-4-yl)ethynyl)phenyl)-4-hydroxy-N-((trans-4-(4-methoxy-3-methylphenyl)cyclohexyl)methyl)cyclohexanecarboxamide] and `COc1ccc([C@H]2CC[C@H](CN(c3cccc(C#Cc4cc[nH]n4)c3)C(=O)[C@H]3CC[C@H](O)CC3)CC2)cc1C` [Compound 4.03, trans-N-(3-((1H-Pyrazol-3-yl)ethynyl)phenyl)-4-hydroxy-N-((trans-4-(4-methoxy-3-methylphenyl)cyclohexyl)methyl)cyclohexanecarboxamide] cannot be ordered by EC50: ≤ 250 nM for the first, ≤ 250 nM for the second.

`COc1ccc([C@H]2CC[C@H](CN(c3cccc(C#Cc4ccn(C)n4)c3)C(=O)[C@H]3CC[C@H](O)CC3)CC2)cc1C` [Compound 4.02, trans-4-Hydroxy-N-((trans-4-(4-methoxy-3-methylphenyl)cyclohexyl)methyl)-N-(3-((1-methyl-1H-pyrazol-3-yl)ethynyl)phenyl)cyclohexanecarboxamide] and `COc1ccc([C@H]2CC[C@H](CN(c3cccc(-n4ccc(C)n4)c3)C(=O)[C@H]3CC[C@H](O)CC3)CC2)cc1C` [Compound 5.01, trans-4-Hydroxy-N-((trans-4-(4-methoxy-3-methylphenyl)cyclohexyl)methyl)-N-(3-(3-methyl-1H-pyrazol-1-yl)phenyl)cyclohexanecarboxamide] cannot be ordered by EC50: ≤ 250 nM for the first, 250 to 1000 nM for the second.

`Cn1nc(F)c2cc([C@H]3CC[C@H](CN(c4cccc(-c5cnn(C6CC6)c5)c4)C(=O)[C@H]4CC[C@H](O)CC4)CC3)ccc21` [Compound 5, trans-N-(3-(1-Cyclopropyl-1H-pyrazol-4-yl)phenyl)-N-((trans-4-(3-fluoro-1-methyl-1H-indazol-5-yl)cyclohexyl)methyl)-4-hydroxycyclohexanecarboxamide] and `COc1ccc([C@H]2CC[C@H](CN(c3cccc(-c4cnn(C5CC5)c4)c3)C(=O)[C@H]3CC[C@H](O)CC3)CC2)cc1Cl` [Compound 5.03, trans-N-((trans-4-(3-Chloro-4-methoxyphenyl)cyclohexyl)methyl)-N-(3-(1-cyclopropyl-1H-pyrazol-4-yl)phenyl)-4-hydroxycyclohexanecarboxamide] cannot be ordered by EC50: ≤ 250 nM for the first, ≤ 250 nM for the second.

`CN(C)c1ccc([C@H]2CC[C@H](CN(c3cccc(-c4cnn(C5CC5)c4)c3)C(=O)[C@H]3CC[C@H](O)CC3)CC2)cn1` [Compound 5.02, trans-N-(3-(1-Cyclopropyl-1H-pyrazol-4-yl)phenyl)-N-((trans-4-(6-(dimethylamino)pyridin-3-yl)cyclohexyl)methyl)-4-hydroxycyclohexanecarboxamide] and `COc1ccc([C@H]2CC[C@H](CN(c3cccc(-c4cnn(C5CC5)c4)c3)C(=O)[C@H]3CC[C@H](O)CC3)CC2)nc1C` [Compound 5.04, trans-N-(3-(1-cyclopropyl-1H-pyrazol-4-yl)phenyl)-4-hydroxy-N-((trans-4-(5-methoxy-6-methylpyridin-2-yl)cyclohexyl)methyl)cyclohexanecarboxamide] cannot be ordered by EC50: ≤ 250 nM for the first, ≤ 250 nM for the second.
